Experimental data from ChEMBL document CHEMBL1145768, “Microsomal triglyceride transfer protein inhibitors: discovery and synthesis of alkyl phosphonates as potent MTP inhibitors and cholesterol lowering agents” (Bioorg Med Chem Lett, 2003).
The source made the active and inactive calls. The calls are words filed in the database; no cut-off is given here.

Key:
[1] = molecular target: T1, Microsomal triglyceride transfer protein large subunit (Bos taurus, UniProt P55156); test: Inhibitory activity against microsomal triglyceride transfer protein (MTP)
T1 sequence (P55156 whole entry): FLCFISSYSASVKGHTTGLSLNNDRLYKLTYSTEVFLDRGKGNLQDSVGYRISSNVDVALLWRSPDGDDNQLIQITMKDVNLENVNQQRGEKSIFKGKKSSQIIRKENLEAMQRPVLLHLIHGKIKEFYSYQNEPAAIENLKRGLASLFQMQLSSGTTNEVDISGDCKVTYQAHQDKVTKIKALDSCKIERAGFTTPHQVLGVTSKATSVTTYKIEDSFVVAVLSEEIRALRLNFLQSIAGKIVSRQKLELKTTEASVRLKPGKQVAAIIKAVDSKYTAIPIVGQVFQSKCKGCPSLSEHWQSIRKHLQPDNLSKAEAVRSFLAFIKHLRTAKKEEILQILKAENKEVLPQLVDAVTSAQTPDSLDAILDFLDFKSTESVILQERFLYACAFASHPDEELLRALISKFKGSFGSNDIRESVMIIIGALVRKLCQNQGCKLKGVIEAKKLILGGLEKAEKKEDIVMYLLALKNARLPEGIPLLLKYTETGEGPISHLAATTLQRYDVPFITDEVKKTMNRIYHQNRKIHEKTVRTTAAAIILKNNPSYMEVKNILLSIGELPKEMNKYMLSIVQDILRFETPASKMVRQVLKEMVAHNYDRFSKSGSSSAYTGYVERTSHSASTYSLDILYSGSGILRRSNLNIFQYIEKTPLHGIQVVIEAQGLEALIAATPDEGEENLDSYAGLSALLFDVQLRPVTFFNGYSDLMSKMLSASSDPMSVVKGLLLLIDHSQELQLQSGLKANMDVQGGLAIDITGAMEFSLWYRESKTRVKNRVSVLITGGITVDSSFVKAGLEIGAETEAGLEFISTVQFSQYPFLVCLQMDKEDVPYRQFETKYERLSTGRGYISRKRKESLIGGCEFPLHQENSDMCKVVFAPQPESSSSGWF

HepG2 [2] = test: Effective concentration against apolipoprotein B (ApoB) from HepG2 cell using apolipoprotein secretion assay; type: functional, cell-based; conditions: Homo sapiens
HepG2 [3] = test: Effective concentration against apolipoprotein A1 (ApoA1) from HepG2 cell using apolipoprotein secretion assay; type: functional, cell-based; conditions: Homo sapiens
Rattus norvegicus [4] = test: Effective dose for inhibition of lipoprotein production (in vivo) after intravenous administration using fasted triton rat assay; type: functional
HepG2 [5] = test: Effective concentration against secretion of apolipoprotein B (ApoB) from HepG2 cell using apolipoprotein secretion assay; type: functional, cell-based; conditions: Homo sapiens
HepG2 [6] = test: Effective concentration against secretion of apolipoprotein A1 (ApoA1) from HepG2 cell using apolipoprotein secretion assay; type: functional, cell-based; conditions: Homo sapiens
Cricetinae gen. sp. [7] = test: Inhibitory activity against plasma cholesterol level after oral administration (qd) (100 mg/kg) for 3 days in hamsters; type: functional, Cricetulus griseus
Rattus norvegicus [8] = test: Effective dose for inhibition of lipoprotein production (in vivo) after oral administration using fasted triton rat assay; type: functional
Rattus norvegicus [9] = test: Inhibitory activity (25 mg/kg) against hepatic lipoprotein secretion; type: functional
Rattus norvegicus [10] = test: Ability to inhibit lipoprotein production (in vivo) after oral administration (50 mg/kg) using fasted triton rat assay;IA: inactive; type: functional, organism-based
Cricetinae gen. sp. [11] = test: Inhibitory activity against plasma cholesterol level after oral administration (15 mg/kg/day) over 3 days in hamsters; type: functional, Cricetulus griseus
Cricetinae gen. sp. [12] = test: Inhibitory activity against plasma cholesterol level after oral administration (15 mg/kg/day) in hamsters; type: functional, Cricetulus griseus

Structure (SMILES)	IC50 [1] [nM]	other results
CCCCOP(=O)(CCCSc1ccncc1)OCCCC	27000	–
CCCCOP(=O)(CCCCSc1nc2ccc(OCC)cc2s1)OCCCC	12000	–
CCCCOP(=O)(CCCSc1nc2cc(OCC)ccc2[nH]1)OCCCC	10000	–
CCCCOP(=O)(CCCOc1cccc2ccccc12)OCCCC	30000	–
CCCCOP(=O)(CCCSc1nc(-c2ccccc2)c(-c2ccccc2)[nH]1)OCCCC	> 30000	–
CCCCOP(=O)(CCCCC1(C(=O)NCc2ccc(N)cc2)c2ccccc2-c2ccccc21)OCCCC	890	–
C=CCC1(C(=O)NCC)c2ccccc2-c2ccccc21	2200	–
O=C1c2ccccc2CN1C1CCN(CCC(c2ccccc2)c2ccccc2)CC1	2200	–
CCCCOP(=O)(CCCCC1(C(=O)NCc2ccccn2)c2ccccc2-c2ccccc21)OCCCC	470	–
CCCCOP(=O)(CCCSc1nc2ccc(OCC)cc2o1)OCCCC	5000	–
CCCCOP(=O)(CCCCC1(C(=O)NCCN2CCOCC2)c2ccccc2-c2ccccc21)OCCCC	500	–
CCCCOP(=O)(CCCCCSc1nc2ccc(OCC)cc2s1)OCCCC	6000	–
CCCCOP(=O)(CCCSc1nc2ccc(OCC)cc2n1C)OCCCC	6000	–
CCCCOP(=O)(CCCSc1nc2ccc(OCC)cc2s1)OCCCC	4500	EC50 (HepG2 [2]): 3900 nM; EC50 (HepG2 [3]): 13200 nM
CCCCOP(=O)(CCCSc1cccs1)OCCCC	> 100000	–
CCCCOP(=O)(CCCOc1ccccc1)OCCCC	4800	–
CCCCOP(=O)(CCCSc1nc(-c2ccccc2)c(-c2ccccc2)o1)OCCCC	6000	–

Molecules with a lower IC50 [1], results first:

IC50 [1] [nM]	Structure (SMILES)	other results
450	CCCCOP(=O)(CCCCC1(C(=O)OC)c2ccccc2-c2ccccc21)OCCCC	–
400	CCCCNC(=O)C1(CCCCP(=O)(OCCCC)OCCCC)c2ccccc2-c2ccccc21	–
280	CC(C)OP(=O)(CCCCC1(C(=O)NCC(F)(F)F)c2ccccc2-c2ccccc21)OC(C)C	–
250	CCCCOP(=O)(CCCCC1(C(=O)NCc2ccccc2)c2ccccc2-c2ccccc21)OCCCC	EC50 (HepG2 [5]): 58 nM; EC50 (HepG2 [6]): > 1000 nM
230	O=C(NC1CCN(CCCC2(C(=O)NCC(F)(F)F)c3ccccc3-c3ccccc32)CC1)c1ccccc1	EC50 (HepG2 [2]): 80 nM; EC50 (HepG2 [3]): > 3300 nM
145	CCOP(=O)(CCCCC1(C(=O)NCC(F)(F)F)c2ccccc2-c2ccccc21)OCC	–
135	CCCNC(=O)C1(CCCCP(=O)(OCC)OCC)c2ccccc2-c2ccccc21	–
90	CCCOP(=O)(CCCCC1(C(=O)NCC(F)(F)F)c2ccccc2-c2ccccc21)OCCC	–
85	O=C(NCC(F)(F)F)C1(CCCCP(=O)(OCc2ccncc2)OCc2ccncc2)c2ccccc2-c2ccccc21	–
65	CCCCOP(=O)(CCCCCC1(C(=O)NCC(F)(F)F)c2ccccc2-c2ccccc21)OCCCC	–
55	CC(C)COP(=O)(CCCCC1(C(=O)NCC(F)(F)F)c2ccccc2-c2ccccc21)OCC(C)C	–
45	Cc1cccc(CCCOP(=O)(CCCCC2(C(=O)NCC(F)(F)F)c3ccccc3-c3ccccc32)OCCCc2cccc(C)n2)n1	–
45	CCCCOP(=O)(CCCCCCC1(C(=O)NCC(F)(F)F)c2ccccc2-c2ccccc21)OCCCC	–
40	O=C(NCC(F)(F)F)C1(CCCCP(=O)(OCCc2ccccn2)OCCc2ccccn2)c2ccccc2-c2ccccc21	–
33	CC(C)(C)COP(=O)(CCCCC1(C(=O)NCC(F)(F)F)c2ccccc2-c2ccccc21)OCC(C)(C)C	–
27	O=C(NCC(F)(F)F)C1(CCCCP(=O)(OCc2ccccn2)OCc2ccccn2)c2ccccc2-c2ccccc21	–
25	O=C(NCC(F)(F)F)C1(CCCCP(=O)(OCCCc2ccccn2)OCCCc2ccccn2)c2ccccc2-c2ccccc21	Inhibition (Cricetinae gen. sp. [12]): 15%
24	O=C(NCC(F)(F)F)C1(CCCCP(=O)(OCc2cccnc2)OCc2cccnc2)c2ccccc2-c2ccccc21	–
22	CCCCOP(=O)(CCCCC1(C(=O)NCC(F)(F)F)c2ccccc2-c2ccccc21)OCCCC	ED30 (Rattus norvegicus [4]): 4 mg/kg; EC50 (HepG2 [5]): 7 nM; EC50 (HepG2 [6]): > 3300 nM; Inhibition (Cricetinae gen. sp. [7]): 15%; ED30 (Rattus norvegicus [8]): 8 mg/kg
21	CCCCOP(=O)(CCCCC1(C(=O)NCCc2ccc(OC)cc2)c2ccccc2-c2ccccc21)OCCCC	EC50 (HepG2 [5]): 23 nM; EC50 (HepG2 [6]): > 330 nM; Inhibition (Rattus norvegicus [9]): 15%
14	CCCCOP(=O)(CCCCC1(C(=O)NCCC)c2ccccc2-c2ccccc21)OCCCC	ED30 (Rattus norvegicus [4]): 15 mg/kg; EC50 (HepG2 [5]): 100 nM; EC50 (HepG2 [6]): 8000 nM; Activity (Rattus norvegicus [10]): inactive
11	Cc1cccc(COP(=O)(CCCCC2(C(=O)NCC(F)(F)F)c3ccccc3-c3ccccc32)OCc2cccc(C)n2)n1	Inhibition (Cricetinae gen. sp. [11]): 35%
